Results published in patent US4351954A (priority 1979, dated 1982).

Columns and labels:
[1] = tested on: acid phosphatase; assay: Enzyme inhibiting activity; assay type: biochemical; conditions: pH 5, 37° C. for 20 minutes
Experimental: A 2×10^-4 M aqueous solution of fluorine-containing amino acid was prepared by adding a fluorine-containing amino acid, viz. CF2 ClCHFCH2 CH(NH2)CO2 H, dissolved in a small amount of methanol to a mixture consisting of 0.1 cc of a 0.025% aqueous solution of acid phosphatase, 0.1 mol of a substrate, 0.05 cc of DPNP, 0.25 cc of water and a 0.1 N sodium acetate (pH 5) as a buffer. The resultant mixture was incubated at 37° C. for 20 minutes. At the end of the 20 minutes, the reaction proceeding in the mixture was stopped by adding 3 cc of an aqueous NaOH solution to the mixture. The mixture was assayed for absorption at a wavelength of 422 mμ.
When the procedure was repeated by using a 1×10^-3 M aqueous solution of CF2 ClCFClCH(CH3)CH(NH2)CO2 H, the enzyme inhibition ratio was 37%.

[2] = tested on: purple loosestrife (Lythrum anceps); assay: Herbicidal activity, miniature paddy field; assay type: in vivo; conditions: 1% aqueous solution, after 15 days
Text: (§1) Paddy-field soil kneaded in a concrete mixer was placed in 500-ml plastic beakers. Seeds of barnyardgrass (Echinochloa crusgalli Beauv.) were scattered on the soil and incorporated in the soil to a depth of about 2 cm from the surface. Afterward, the seeds of pickerelweed (Monochloria vaginalis var. plantaginea) and purple loosestrife (Lythrum anceps) were scattered on the surface of soil. Then, slender spikerush (Eleocharis acicularis) and rice were transplanted to the soil. The soil in the beakers was inundated to a depth of about 3 cm. After two days, 1% aqueous solution of CF2 ClCFClCH2 CH(NH2)CO2 H and CF2 BrCF2 CH2 CH(NH2)CO2 H were applied to the soil in the beakers at dosage rates of 1000 g, 500 g, and 250 g per 10 acres with the aid of a pipet. After 15 days, the miniature paddy fields were examined.

[3] = tested on: pickerelweed (Monochloria vaginalis var. plantaginea); assay: Herbicidal activity, miniature paddy field; assay type: in vivo; conditions: 1% aqueous solution, after 15 days
Text: as §1

[4] = tested on: melanose (Diaporthe citri Wolf); assay type: cell-based
[5] = tested on: black spot (Alternaria kikuchiana Tanka); assay type: cell-based
[6] = tested on: diamondback moths (Plutella maculipennis Curtis); assay: Insecticidal activity, treated cabbage leaves fed to moths; assay type: in vivo; conditions: 240 h, cabbage leaves immersed in 500-ppm aqueous solution, after 10 days, read-out: insects dead
Text: Cabbage leaves were immersed in a 500-ppm aqueous CF2 BrCF2 CH2 CH(NH2)CO2 H solution, removed from the solution and dried. They were placed in a Petri dish, in which a group of diamondback moths (Plutella maculipennis Curtis) were fed on the cabbage leaves. After 10 days, 70% of the insects were dead. When the same number of diamondback moths were fed on cabbage leaves which had not been given the treatment, only 10% of the insects were dead after 10 days.

[7] = tested on: bacterial leaf blight (Xanthomonas oryzae Dowson); assay type: cell-based; conditions: paper discs immersed in 500-ppm aqueous solution; after two days; qualitative
[8] = tested on: blast (Pyricularia oryzae Cavara); assay type: cell-based; conditions: paper discs immersed in 500-ppm aqueous solution; after two days; qualitative

| Compound | enzyme inhibition ([1]; 2×10^-4 M) | destruction of purple loosestrife ([2]; 250 g per 10 acres) | destruction of purple loosestrife ([2]; 500 g per 10 acres) | destruction of purple loosestrife ([2]; 1000 g per 10 acres) | destruction of pickerelweed ([3]; 250 g per 10 acres) | destruction of pickerelweed ([3]; 500 g per 10 acres) | destruction of pickerelweed ([3]; 1000 g per 10 acres) | growth of the germs of melanose [4] | growth of the germs of black spot [5] | enzyme inhibition ratio ([1]; 1×10^-3 M, 1000 µM) | mortality at 500 µg/mL [6] | growth of the germs of bacterial leaf blight [7] | growth of the germs of blast [8] |
| --- | --- | --- | --- | --- | --- | --- | --- | --- | --- | --- | --- | --- | --- |
| NC(CC(F)C(F)(F)Cl)C(=O)O (stereo not shown) [CF2 ClCHFCH2 CH(NH2)CO2 H, 2-amino-4,5,5-trifluoro-5-chloropentanoic acid] | 58% |  |  |  |  |  |  |  |  |  |  |  |  |
| NC(CC(F)(Cl)C(F)(F)Cl)C(=O)O (stereo not shown) [CF2 ClCFClCH2 CH(NH2)CO2 H] |  | completely destroyed | completely destroyed | completely destroyed | completely destroyed | completely destroyed | completely destroyed | impeded the growth | impeded the growth |  |  |  |  |
| CC(C(N)C(=O)O)C(F)(Cl)C(F)(F)Cl (stereo not shown) [CF2 ClCFClCH(CH3)CH(NH2)CO2 H, 2-amino-3-methyl-4,5-dichloro-4,5,5-trifluoropentanoic acid] |  |  |  |  |  |  |  |  |  | 37% |  |  |  |
| NC(CC(F)(F)C(F)(F)Br)C(=O)O (stereo not shown) [CF2 BrCF2 CH2 CH(NH2)CO2 H, 2-amino-4,4,5,5-tetrafluoro-5-bromopentanoic acid] |  | half destroyed | half destroyed | completely destroyed | half destroyed | half destroyed | completely destroyed |  |  |  | 70% | impeded the growth | impeded the growth |
